Test results as given in patent US11813277B2, “Methods and agents for modulating inflammation” (The Regents of the University of California, priority 2018, dated 2023).
Entries after “also recorded” stand apart in the source; their conditions may differ.

Legend:
CPT-1 = target: T1, CPT-1 (Mus musculus, UniProt P97742); test: Palmitoyl CoA-driven respiration in permeabilized BMDMs; type: cell-based
T1 construct: endogenous in cells; host or cells: mouse bone marrow-derived macrophages (BMDMs)
T1 sequence (P97742 1-773): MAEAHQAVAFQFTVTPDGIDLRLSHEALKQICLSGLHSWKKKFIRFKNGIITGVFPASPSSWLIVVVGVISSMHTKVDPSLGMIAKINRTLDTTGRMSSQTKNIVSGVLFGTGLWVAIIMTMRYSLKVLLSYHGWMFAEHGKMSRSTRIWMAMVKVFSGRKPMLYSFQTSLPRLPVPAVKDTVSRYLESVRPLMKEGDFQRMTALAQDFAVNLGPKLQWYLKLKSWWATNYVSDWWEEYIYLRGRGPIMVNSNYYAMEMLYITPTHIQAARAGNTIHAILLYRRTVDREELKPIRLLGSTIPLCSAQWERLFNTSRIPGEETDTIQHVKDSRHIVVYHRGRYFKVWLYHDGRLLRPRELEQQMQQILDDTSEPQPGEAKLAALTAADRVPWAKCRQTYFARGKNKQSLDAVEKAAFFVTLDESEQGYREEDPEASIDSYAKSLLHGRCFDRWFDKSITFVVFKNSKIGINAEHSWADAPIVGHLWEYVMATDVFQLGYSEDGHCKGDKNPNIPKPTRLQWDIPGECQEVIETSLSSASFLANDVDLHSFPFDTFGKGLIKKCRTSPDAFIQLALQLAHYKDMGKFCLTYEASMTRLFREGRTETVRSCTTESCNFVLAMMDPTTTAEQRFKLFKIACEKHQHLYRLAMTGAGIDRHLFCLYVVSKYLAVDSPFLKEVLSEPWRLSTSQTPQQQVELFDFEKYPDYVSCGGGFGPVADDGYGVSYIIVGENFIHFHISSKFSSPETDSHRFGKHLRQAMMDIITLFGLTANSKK

[1] = system: isolated rat liver mitochondria; test: ADP- vs FCCP-stimulated respiration in isolated liver mitochondria; type: biochemical; details: high etomoxir (100 μM), pyruvate/malate
Procedure: Mouse liver mitochondria were isolated according to standard techniques (Rogers, G. W., Brand, M. D., Petrosyan, S., Ashok, D., Elorza, A. A., Ferrick, D. A., and Murphy, A. N. (2011) High throughput microplate respiratory measurements using minimal quantities of isolated mitochondria. PLoS One. 6, e21746). The liver from a male mouse was minced and rinsed several times in MSHE [70 mM sucrose, 210 mM mannitol, 5 mM HEPES (pH 7.2), and 1 mM EGTA with 0.5% (w/v) fatty acid-free BSA] to remove blood. Tissue was disrupted using a drill-driven Teflon-on-glass Dounce homogenizer (between 2-4 strokes). The homogenate was centrifuged at 800 g for 10 min and the supernatant was filtered through cheesecloth and centrifuged at 8000 g for 10 min. […]
Phosphorylating respiration was measured in isolated liver mitochondria (1.5 μg/well) as previously described (Rogers, G. W., Brand, M. D., Petrosyan, S., Ashok, D., Elorza, A. A., Ferrick, D. A., and Murphy, A. N. (2011) High throughput microplate respiratory measurements using minimal quantities of isolated mitochondria. PLoS One. 6, e21746), and offered 10 mM pyruvate, 1 mM malate, and 4 mM ADP. Uncoupler stimulated respiration was measured after addition of oligomycin (3 ng/mg mitochondrial protein) and FCCP (4 μM). […]

[2] = system: phosphate (Pi) transporter; test: Phosphate transporter assay (mitochondrial swelling); type: biochemical, rat; details: 250 μM etomoxir, 100 μM NEM, 10 μM mersalyl
Procedure: Phosphate transport was measured by monitoring swelling of de-energized mitochondria in isotonic potassium phosphate medium based upon principles described by Coty, W. A. and Pedersen, P. L. (1975) Phosphate transport in rat liver mitochondria. Kinetics, inhibitor sensitivity, energy requirements, and labeled components. Mol Cell Biochem. 9, 109-24. As the phosphate carrier acts as electroneutral symporter with protons, the process is self-restricting due to generation of an opposing pH gradient. […] In the presence of nigericin, the proton fluxes cycle resulting in electro- and pH-neutral transport of potassium phosphate down its concentration gradient into the mitochondrial matrix, resulting in osmotic accumulation of water. Under these conditions, transport is limited by the activity of phosphate carrier, and can be recorded as mitochondrial swelling (a decrease in light scattering).
The measurements were performed in an LS-50B spectrofluorometer (Perkin-Elmer) at 540 nm. Assay medium contained 125 mM potassium phosphate, pH 7.2, 0.5 mM EGTA, and 2 μM rotenone. Mouse liver mitochondria (0.5 mg/ml) were treated with 250 μM etomoxir, 100 μM N-ethylmaleimide (NEM) (Klingenberg, M., Durand, R., and Guerin, B. (1974) Analysis of the reactivity of SH-reagents with the mitochondrial phosphate carrier. Eur J Biochem, 42, 135-150) or 10 μM mersalyl (Paradies, G. and Ruggiero, F. M. (1991) Effect of aging on the activity of the phosphate carrier and on the lipid composition in rat liver mitochondria. Arch Biochem Biophys. 284, 332-337) and the reaction was started with 5 μM nigericin. Typical traces from 3 experiments are shown. To establish the maximally swollen state of mitochondria, 80 μg/ml alamethicin was used.

BMDMs = test: ADP- or FCCP-stimulated respiration in permeabilized WT, Cpt1a-/- and Cpt2-/- BMDMs; type: cell-based, mouse; details: 200 μM etomoxir; independent of CPT-1 activity; also stated for Treg cells
M(IL-4) polarization = details: cited from earlier work

Question: With `CCOC(=O)[C@@]1(CCCCCCOc2ccc(Cl)cc2)CO1` [etomoxir] as the molecule, how does the “sensitivity of respiration to 3 μM etomoxir” value (CPT-1; conditional CPT KO BMDMs) read?
Answer: largely absent

Question: And the “EC50, FCCP-stimulated palmitoyl CoA-driven respiration” value (CPT-1; permeabilized BMDMs)?
Answer: nanomolar

Question: What about the “concentration of saturable effect” value (CPT-1; permeabilized BMDMs) of the same molecule?
Answer: less than 3 μM

Question: And the “respiration driven by ADP versus FCCP” value [1]?
Answer: greater inhibitory effect on respiration driven by ADP versus FCCP

Question: And the “Pi transporter activity (rate of swelling)” value [2]?
Answer: does not inhibit

Question: And the “Pi transporter activity (rate of swelling)” value ([2]; listed as Etomoxir)?
Answer: does not affect the rate of swelling

Question: And the “phosphorylating and uncoupled respiration” value (BMDMs)?
Answer: pronounced off-target effect on phosphorylating respiration with a secondary effect at uncoupled respiration

Question: What about the “blocking M(IL-4) polarization in Cpt2-/- BMDMs vs WT” value (M(IL-4) polarization; 200 μM etomoxir) of the same molecule?
Answer: equally effective

Question: What about the “IL-4-associated markers / IL-4 response” value (M(IL-4) polarization; etomoxir 10 μM to 100 μM) of the same molecule?
Answer: unaffected; also recorded: fail to affect
